Test results as given in PubChem BioAssay (NCI).
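Dose response: 5 concentrations. Exposure: 48 h. Format: 96-well plates. Endpoint: linear interpolation; highest concentration if not reached. Abbreviation: GI50, concentration required for 50% inhibition of growth. TGI: concentration producing complete growth inhibition.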

Key:
Experiment in all cases: growth of human tumour cells (NCI), 48 h; in the data active = GI50 below about 0.43 µM; inactive = the rest
HCT-116 colon = system: HCT-116 colon
M19-MEL melanoma = system: M19-MEL melanoma
SK-MEL-2 melanoma = system: SK-MEL-2 melanoma
DMS 114 small cell lung = system: DMS 114 small cell lung
KM20L2 colon = system: KM20L2 colon
RXF 393 renal = system: RXF 393 renal
HOP-62 NSCLC = system: HOP-62 NSCLC
SK-OV-3 ovarian = system: SK-OV-3 ovarian
NCI-H23 lung = system: NCI-H23 lung
SF-268 CNS = system: SF-268 CNS
CCRF-CEM leukemia = system: CCRF-CEM leukemia
KM12 colon = system: KM12 colon
HT29 colon = system: HT29 colon
LXFL 529 NSCLC = system: LXFL 529 NSCLC
SNB-19 CNS = system: SNB-19 CNS
SF-295 CNS = system: SF-295 CNS
OVCAR-8 ovarian = system: OVCAR-8 ovarian
SF-539 CNS = system: SF-539 CNS
NCI-H226 lung = system: NCI-H226 lung
IGROV1 ovarian = system: IGROV1 ovarian
DLD-1 colon = system: DLD-1 colon
UO-31 renal = system: UO-31 renal
K-562 leukemia = system: K-562 leukemia
U251 CNS = system: U251 CNS
786-0 renal = system: 786-0 renal
EKVX NSCLC = system: EKVX NSCLC
SNB-78 CNS = system: SNB-78 CNS
UACC-257 melanoma = system: UACC-257 melanoma
HCC-2998 colon = system: HCC-2998 colon
OVCAR-3 ovarian = system: OVCAR-3 ovarian
A549 NSCLC = system: A549 NSCLC
UACC-62 melanoma = system: UACC-62 melanoma
M14 melanoma = system: M14 melanoma
LOX IMVI melanoma = system: LOX IMVI melanoma
NCI-H522 lung = system: NCI-H522 lung
ACHN renal = system: ACHN renal
DMS 273 small cell lung = system: DMS 273 small cell lung
HOP-92 NSCLC = system: HOP-92 NSCLC
COLO 205 colon = system: COLO 205 colon
TK-10 renal = system: TK-10 renal
RPMI-8226 leukemia = system: RPMI-8226 leukemia
SN12C renal = system: SN12C renal
XF 498 CNS = system: XF 498 CNS
HOP-18 NSCLC = system: HOP-18 NSCLC
MOLT-4 leukemia = system: MOLT-4 leukemia
NCI-H460 lung = system: NCI-H460 lung
SNB-75 CNS = system: SNB-75 CNS
MALME-3M melanoma = system: MALME-3M melanoma
SW-620 colon = system: SW-620 colon
HL-60(TB) leukemia = system: HL-60(TB) leukemia
SK-MEL-5 melanoma = system: SK-MEL-5 melanoma
HCT-15 colon = system: HCT-15 colon
CAKI-1 renal = system: CAKI-1 renal
SR leukemia = system: SR leukemia
SK-MEL-28 melanoma = system: SK-MEL-28 melanoma
OVCAR-5 ovarian = system: OVCAR-5 ovarian
A498 renal = system: A498 renal
OVCAR-4 ovarian = system: OVCAR-4 ovarian

C#C[C@]1(O)CCC2C3CCc4cc(Oc5nc(F)nc(-n6c(C)nc7cc8ccccc8cc76)n5)ccc4C3CCC21C (stereo partly specified)
> 100 µM: TGI (HCT-116 colon) | TGI (M19-MEL melanoma) | TGI (SK-MEL-2 melanoma) | TGI (KM20L2 colon) | TGI (RXF 393 renal) | TGI (HOP-62 NSCLC) | TGI (SK-OV-3 ovarian) | TGI (NCI-H23 lung) | TGI (SF-268 CNS) | TGI (CCRF-CEM leukemia) | TGI (KM12 colon) | TGI (HT29 colon) | TGI (LXFL 529 NSCLC) | TGI (SNB-19 CNS) | TGI (SF-295 CNS) | TGI (OVCAR-8 ovarian) | TGI (SF-539 CNS) | TGI (NCI-H226 lung) | TGI (IGROV1 ovarian) | TGI (DLD-1 colon) | TGI (UO-31 renal) | TGI (K-562 leukemia) | TGI (U251 CNS) | TGI (786-0 renal) | TGI (EKVX NSCLC) | TGI (SNB-78 CNS) | TGI (UACC-257 melanoma) | TGI (HCC-2998 colon) | TGI (OVCAR-3 ovarian) | TGI (A549 NSCLC) | TGI (UACC-62 melanoma) | TGI (M14 melanoma) | TGI (LOX IMVI melanoma) | TGI (NCI-H522 lung) | TGI (ACHN renal) | TGI (DMS 273 small cell lung) | TGI (HOP-92 NSCLC) | TGI (TK-10 renal) | TGI (RPMI-8226 leukemia) | TGI (SN12C renal) | TGI (XF 498 CNS) | TGI (HOP-18 NSCLC) | TGI (MOLT-4 leukemia) | TGI (SNB-75 CNS) | TGI (MALME-3M melanoma) | TGI (SW-620 colon) | TGI (HL-60(TB) leukemia) | TGI (SK-MEL-5 melanoma)
53.8 µM: TGI (DMS 114 small cell lung)
45.8 µM: TGI (COLO 205 colon)
65.9 µM: TGI (NCI-H460 lung)

CC1(C(=O)Nc2ccc3cc4ccccc4cc3c2)CC2(C)CC(C)(C1)C(O)NC2=O (stereo unspecified)
> 100 µM: TGI (HCT-116 colon) | TGI (M19-MEL melanoma) | TGI (SK-MEL-2 melanoma) | TGI (DMS 114 small cell lung) | TGI (KM20L2 colon) | TGI (RXF 393 renal) | TGI (HOP-62 NSCLC) | TGI (HCT-15 colon) | TGI (SK-OV-3 ovarian) | TGI (NCI-H23 lung) | TGI (SF-268 CNS) | TGI (CCRF-CEM leukemia) | TGI (CAKI-1 renal) | TGI (KM12 colon) | TGI (HT29 colon) | TGI (LXFL 529 NSCLC) | TGI (SR leukemia) | TGI (SF-295 CNS) | TGI (SK-MEL-28 melanoma) | TGI (OVCAR-5 ovarian) | TGI (OVCAR-8 ovarian) | TGI (SF-539 CNS) | TGI (NCI-H226 lung) | TGI (IGROV1 ovarian) | TGI (DLD-1 colon) | TGI (UO-31 renal) | TGI (K-562 leukemia) | TGI (U251 CNS) | TGI (786-0 renal) | TGI (EKVX NSCLC) | TGI (SNB-78 CNS) | TGI (A498 renal) | TGI (UACC-257 melanoma) | TGI (HCC-2998 colon) | TGI (OVCAR-3 ovarian) | TGI (A549 NSCLC) | TGI (UACC-62 melanoma) | TGI (M14 melanoma) | TGI (LOX IMVI melanoma) | TGI (OVCAR-4 ovarian) | TGI (ACHN renal) | TGI (DMS 273 small cell lung) | TGI (HOP-92 NSCLC) | TGI (COLO 205 colon) | TGI (TK-10 renal) | TGI (RPMI-8226 leukemia) | TGI (SN12C renal) | TGI (XF 498 CNS) | TGI (HOP-18 NSCLC) | TGI (MOLT-4 leukemia) | TGI (NCI-H460 lung) | TGI (SNB-75 CNS) | TGI (MALME-3M melanoma) | TGI (SW-620 colon) | TGI (SK-MEL-5 melanoma)
85.8 µM: TGI (HL-60(TB) leukemia)

COc1cc(C)cc2c1[nH]c1ccccc12
13.3 µM: TGI (NCI-H522 lung)
23.9 µM: TGI (OVCAR-8 ovarian)
12.7 µM: TGI (HOP-18 NSCLC)
18.6 µM: TGI (HOP-62 NSCLC)
19.6 µM: TGI (KM20L2 colon)
active: GI50 (HOP-18 NSCLC) 0.29 µM
14.5 µM: TGI (SF-539 CNS)
22.1 µM: TGI (M14 melanoma)
> 25 µM: TGI (HCT-116 colon) | TGI (M19-MEL melanoma) | TGI (SK-MEL-2 melanoma) | TGI (DMS 114 small cell lung) | TGI (HCT-15 colon) | TGI (SK-OV-3 ovarian) | TGI (SF-268 CNS) | TGI (CCRF-CEM leukemia) | TGI (KM12 colon) | TGI (HT29 colon) | TGI (LXFL 529 NSCLC) | TGI (SR leukemia) | TGI (SNB-19 CNS) | TGI (SK-MEL-28 melanoma) | TGI (OVCAR-5 ovarian) | TGI (NCI-H226 lung) | TGI (IGROV1 ovarian) | TGI (DLD-1 colon) | TGI (UO-31 renal) | TGI (K-562 leukemia) | TGI (U251 CNS) | TGI (786-0 renal) | TGI (SNB-78 CNS) | TGI (HCC-2998 colon) | TGI (OVCAR-3 ovarian) | TGI (A549 NSCLC) | TGI (UACC-62 melanoma) | TGI (LOX IMVI melanoma) | TGI (OVCAR-4 ovarian) | TGI (ACHN renal) | TGI (DMS 273 small cell lung) | TGI (HOP-92 NSCLC) | TGI (COLO 205 colon) | TGI (TK-10 renal) | TGI (RPMI-8226 leukemia) | TGI (SN12C renal) | TGI (XF 498 CNS) | TGI (NCI-H460 lung) | TGI (MALME-3M melanoma) | TGI (SW-620 colon) | TGI (HL-60(TB) leukemia) | TGI (SK-MEL-5 melanoma)
22.5 µM: TGI (RXF 393 renal)
inactive: GI50 (HCT-116 colon) 11.4 µM | GI50 (M19-MEL melanoma) 18.3 µM | GI50 (SK-MEL-2 melanoma) 7.33 µM | GI50 (KM20L2 colon) 7.53 µM | GI50 (HCT-15 colon) 7.45 µM | GI50 (SK-OV-3 ovarian) 20.9 µM | GI50 (SF-268 CNS) 14.3 µM | GI50 (CCRF-CEM leukemia) 15.4 µM | GI50 (KM12 colon) 8.12 µM | GI50 (HT29 colon) 7.78 µM | GI50 (LXFL 529 NSCLC) 18.3 µM | GI50 (SR leukemia) 10.3 µM | GI50 (SK-MEL-28 melanoma) 16.3 µM | GI50 (SF-539 CNS) 6.01 µM | GI50 (NCI-H226 lung) 8.44 µM | GI50 (IGROV1 ovarian) 14.8 µM | GI50 (DLD-1 colon) 10.5 µM | GI50 (UO-31 renal) 15 µM | GI50 (U251 CNS) 10.4 µM | GI50 (786-0 renal) 9.37 µM | GI50 (HCC-2998 colon) 14.9 µM | GI50 (UACC-62 melanoma) 15 µM | GI50 (M14 melanoma) 7.24 µM | GI50 (LOX IMVI melanoma) 12.7 µM | GI50 (NCI-H522 lung) 4.24 µM | GI50 (ACHN renal) 23.4 µM | GI50 (DMS 273 small cell lung) 7.73 µM | GI50 (HOP-92 NSCLC) 23.5 µM | GI50 (COLO 205 colon) 12.4 µM | GI50 (SN12C renal) 14.1 µM | GI50 (XF 498 CNS) 22.6 µM | GI50 (NCI-H460 lung) 7.83 µM | GI50 (MALME-3M melanoma) 8.11 µM | GI50 (SW-620 colon) 8.35 µM | GI50 (HL-60(TB) leukemia) 6.88 µM | GI50 (SK-MEL-5 melanoma) 9.19 µM

CC(=O)CC(=O)Nc1ccccc1[N+](=O)[O-]
> 100 µM: TGI (HCT-116 colon) | TGI (M19-MEL melanoma) | TGI (SK-MEL-2 melanoma) | TGI (DMS 114 small cell lung) | TGI (KM20L2 colon) | TGI (RXF 393 renal) | TGI (HOP-62 NSCLC) | TGI (HCT-15 colon) | TGI (SK-OV-3 ovarian) | TGI (NCI-H23 lung) | TGI (SF-268 CNS) | TGI (CCRF-CEM leukemia) | TGI (CAKI-1 renal) | TGI (KM12 colon) | TGI (HT29 colon) | TGI (LXFL 529 NSCLC) | TGI (SR leukemia) | TGI (SNB-19 CNS) | TGI (SF-295 CNS) | TGI (SK-MEL-28 melanoma) | TGI (OVCAR-5 ovarian) | TGI (OVCAR-8 ovarian) | TGI (SF-539 CNS) | TGI (NCI-H226 lung) | TGI (IGROV1 ovarian) | TGI (DLD-1 colon) | TGI (UO-31 renal) | TGI (K-562 leukemia) | TGI (U251 CNS) | TGI (786-0 renal) | TGI (EKVX NSCLC) | TGI (SNB-78 CNS) | TGI (A498 renal) | TGI (UACC-257 melanoma) | TGI (HCC-2998 colon) | TGI (OVCAR-3 ovarian) | TGI (A549 NSCLC) | TGI (UACC-62 melanoma) | TGI (M14 melanoma) | TGI (NCI-H522 lung) | TGI (OVCAR-4 ovarian) | TGI (ACHN renal) | TGI (DMS 273 small cell lung) | TGI (HOP-92 NSCLC) | TGI (COLO 205 colon) | TGI (TK-10 renal) | TGI (RPMI-8226 leukemia) | TGI (SN12C renal) | TGI (XF 498 CNS) | TGI (HOP-18 NSCLC) | TGI (MOLT-4 leukemia) | TGI (NCI-H460 lung) | TGI (SNB-75 CNS) | TGI (MALME-3M melanoma) | TGI (SW-620 colon) | TGI (HL-60(TB) leukemia) | TGI (SK-MEL-5 melanoma)
